Measured values as given in ChEMBL document CHEMBL6134798, “Classifying covalent protein binders by their targeted binding site” (Bioorg Med Chem Lett, 2025).

Assays:
[1] = biological target: Epidermal growth factor receptor (Homo sapiens, UniProt P00533); test: Inhibition of EGFR (unknown origin)
Secernin-3 = biological target: T1, Secernin-3 (Homo sapiens, UniProt Q0VDG4); test: Inhibition of full length human SCRN3 transfected in HEK293T cells; type: cell-based
T1 sequence (Q0VDG4 whole entry): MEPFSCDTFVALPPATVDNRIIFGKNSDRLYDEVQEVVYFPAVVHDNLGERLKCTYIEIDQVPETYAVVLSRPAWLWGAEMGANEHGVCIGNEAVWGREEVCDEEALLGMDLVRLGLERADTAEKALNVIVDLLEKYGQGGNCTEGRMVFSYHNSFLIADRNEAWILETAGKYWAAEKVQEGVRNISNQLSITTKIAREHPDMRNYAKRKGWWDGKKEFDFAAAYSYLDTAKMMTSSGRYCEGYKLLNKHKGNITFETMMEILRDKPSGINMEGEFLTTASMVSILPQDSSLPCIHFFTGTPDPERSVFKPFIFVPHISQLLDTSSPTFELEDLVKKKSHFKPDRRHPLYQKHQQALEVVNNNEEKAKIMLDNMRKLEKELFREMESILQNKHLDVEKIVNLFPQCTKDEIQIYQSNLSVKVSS

K562 = test: Growth inhibition of human K562 cells; type: functional

Sequence of Epidermal growth factor receptor (P00533 whole entry): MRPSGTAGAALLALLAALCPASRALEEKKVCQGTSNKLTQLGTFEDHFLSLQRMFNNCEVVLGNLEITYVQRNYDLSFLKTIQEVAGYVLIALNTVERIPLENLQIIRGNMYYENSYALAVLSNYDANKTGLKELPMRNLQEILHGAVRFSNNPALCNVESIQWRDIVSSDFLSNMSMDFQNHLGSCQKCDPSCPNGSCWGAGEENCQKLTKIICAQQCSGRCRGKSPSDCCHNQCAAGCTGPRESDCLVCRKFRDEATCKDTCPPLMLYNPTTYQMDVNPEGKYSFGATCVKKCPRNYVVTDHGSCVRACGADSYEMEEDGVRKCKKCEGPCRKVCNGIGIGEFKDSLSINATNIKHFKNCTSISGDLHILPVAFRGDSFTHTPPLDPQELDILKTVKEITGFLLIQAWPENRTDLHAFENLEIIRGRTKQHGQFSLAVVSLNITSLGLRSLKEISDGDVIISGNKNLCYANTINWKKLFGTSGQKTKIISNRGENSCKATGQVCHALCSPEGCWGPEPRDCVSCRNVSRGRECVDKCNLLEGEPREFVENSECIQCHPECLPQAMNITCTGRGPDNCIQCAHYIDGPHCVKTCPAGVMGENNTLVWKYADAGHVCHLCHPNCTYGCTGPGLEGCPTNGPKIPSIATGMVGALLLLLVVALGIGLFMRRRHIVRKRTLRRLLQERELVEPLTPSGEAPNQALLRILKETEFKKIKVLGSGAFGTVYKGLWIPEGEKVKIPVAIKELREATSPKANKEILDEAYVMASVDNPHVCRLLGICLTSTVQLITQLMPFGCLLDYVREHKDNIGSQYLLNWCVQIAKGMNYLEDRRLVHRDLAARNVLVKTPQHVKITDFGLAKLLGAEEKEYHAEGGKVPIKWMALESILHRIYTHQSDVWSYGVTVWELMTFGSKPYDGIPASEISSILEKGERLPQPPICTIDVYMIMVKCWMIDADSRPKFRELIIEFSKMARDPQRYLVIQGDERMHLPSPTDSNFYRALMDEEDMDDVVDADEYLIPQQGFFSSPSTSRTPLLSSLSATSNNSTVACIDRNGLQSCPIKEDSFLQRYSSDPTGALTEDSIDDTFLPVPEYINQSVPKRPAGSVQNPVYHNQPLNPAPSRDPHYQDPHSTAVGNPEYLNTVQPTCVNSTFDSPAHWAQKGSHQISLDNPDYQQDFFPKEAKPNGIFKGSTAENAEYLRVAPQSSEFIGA

## C=CC(=O)N1CCN(c2ncnc3c(F)c(-c4c(O)cccc4F)c(Cl)cc23)CC1
[1]
  IC50: 120 nM

## NNc1ccc2ccccc2c1
Secernin-3
  IC50: 200 nM

## COc1cc(O)c(C=O)cc1-c1c[nH]c2ncc(-c3cncc(C(=O)N(C)C)c3)cc12
K562
  GI50: 55.6 nM
